The values that follow come from patent US20250026748A1, “N-(5-SUBSTITUTED-[(1,3,4-THIADIAZOLYL) OR (THIAZOLYL)])(SUBSTITUTED)CARBOXAMIDE COMPOUNDS AND USE THEREOF FOR INHIBITING HUMAN POLYMERASE THETA” (Repare Therapeutics Inc., priority 2021, published 2025).

As usually defined, the IC50 is the concentration that gives 50% inhibition. A higher IC50 goes with weaker potency.

This test has as its target PolQ ATPase enzyme (1-894) (Homo sapiens (Human), UniProt O75417). Kind of test: Polθ ATPase enzymatic assay (0.5 nM enzyme concentration), ADP-Glo. It counts as biochemical. The note with it: average IC50; 0.5 nM PolQ ATPase enzyme (1-894). In outline:
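Enzyme (0.5 nM) pre-incubated 15 min at rt with 10-point inhibitor series in 50 mM Tris pH 7.5, 10% glycerol, 5 mM DTT, 10 mM MgCl2, 0.1 mg/ml BSA; reaction started with 20 nM fork DNA and 100 μM ATP, run 180 min at rt. ADP-Glo luminescence; IC50 from 4-parameter variable-slope fit.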
In general terms: In ADP-Glo the light output rises with the ADP produced.

PolQ ATPase enzyme (1-894), sequence (O75417 1-894): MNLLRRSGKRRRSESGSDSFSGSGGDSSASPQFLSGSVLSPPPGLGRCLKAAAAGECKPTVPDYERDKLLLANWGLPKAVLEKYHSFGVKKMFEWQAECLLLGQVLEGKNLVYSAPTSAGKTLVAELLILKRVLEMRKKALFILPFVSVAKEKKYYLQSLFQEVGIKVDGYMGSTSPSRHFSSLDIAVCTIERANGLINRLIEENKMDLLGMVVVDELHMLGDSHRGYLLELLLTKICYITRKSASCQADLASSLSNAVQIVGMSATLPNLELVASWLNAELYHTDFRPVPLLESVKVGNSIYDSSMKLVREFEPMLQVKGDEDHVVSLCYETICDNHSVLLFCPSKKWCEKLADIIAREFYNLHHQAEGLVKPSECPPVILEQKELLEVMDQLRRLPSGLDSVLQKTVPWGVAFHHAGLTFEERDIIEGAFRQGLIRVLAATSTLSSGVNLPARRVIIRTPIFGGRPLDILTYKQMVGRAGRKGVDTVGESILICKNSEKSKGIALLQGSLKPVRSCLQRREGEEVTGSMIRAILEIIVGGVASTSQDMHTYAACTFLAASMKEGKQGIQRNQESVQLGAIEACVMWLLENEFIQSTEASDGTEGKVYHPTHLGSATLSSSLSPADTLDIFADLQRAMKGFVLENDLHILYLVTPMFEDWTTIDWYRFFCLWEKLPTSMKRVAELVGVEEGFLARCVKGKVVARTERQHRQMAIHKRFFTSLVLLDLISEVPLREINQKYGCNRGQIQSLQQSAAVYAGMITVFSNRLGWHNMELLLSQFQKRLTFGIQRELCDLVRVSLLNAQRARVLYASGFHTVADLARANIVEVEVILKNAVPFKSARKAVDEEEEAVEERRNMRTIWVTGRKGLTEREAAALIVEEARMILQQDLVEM

The molecule `COc1cnc(C(F)F)cc1-c1cc(CC(=O)N(C)C)ncc1C(=O)Nc1ncc(C#CC2CC2)s1` [Compound 200] returned an IC50 below 0.25 nM.
Next, `COc1cnc(C(F)F)cc1-c1cc(-c2cn(C)cn2)ccc1C(=O)Nc1nnc(C#CC2CC2)s1` [Compound 201]: below 0.25 nM; `COc1cnc(C(F)F)cc1-c1cc(-c2ccc(=O)n(C)c2)ccc1C(=O)Nc1nnc(C#CC2CC2)s1` [Compound 202]: 0.29 nM.
In the case of `COc1cnc(C(F)F)cc1-c1cc(N(C)C#N)ccc1C(=O)Nc1nnc(C#CC2CC2)s1` [Compound 203], half-maximal inhibition (IC50) required 2.9 nM.
The value for `CNC(=O)Cc1ccc(C(=O)Nc2ncc(C#CC3CC3)s2)c(-c2cc(C(F)F)ncc2OC)c1` [Compound 204] was 0.71 nM.
Next, `COc1cnc(C(F)F)cc1-c1cc(CC(=O)N2CC(C)(O)C2)ccc1C(=O)Nc1ncc(C#CC2CC2)s1` [Compound 205]: 0.16 nM; `COc1cnc(C(F)F)cc1-c1cc(CC(=O)N2CC(C)(O)C2)ccc1C(=O)Nc1nnc(C#CC2CC2)s1` [Compound 206]: below 0.25 nM; `O=C(Nc1ncc(C#CC2CC2)s1)c1cc(=O)n(Cc2ncco2)cc1-c1cc(C(F)F)ccc1Cl` [Compound 207]: 2.6 nM.
Next, `O=C(Nc1ncc(C#CC2CC2)s1)c1cc(=O)n(Cc2nccs2)cc1-c1cc(C(F)F)ccc1Cl` [Compound 208]: 14 nM.
Take `COc1cnc(C(F)F)cc1-c1cc(N2CCCCC2=O)ccc1C(=O)Nc1ncc(C#CC2CC2)s1` [Compound 209]: the IC50 turned out to be 0.67 nM.
Next, `COc1cnc(C(F)F)cc1-c1cc(C#CC2(C(=O)N(C)C)CC2)ncc1C(=O)Nc1ncc(C#CC2CC2)s1` [Compound 210]: below 0.25 nM; `COc1cnc(C(F)F)cc1-c1cc(C#CC2(C(=O)N(C)C)CC2)ncc1C(=O)Nc1nnc(C#CC2CC2)s1` [Compound 211]: below 0.25 nM; `COc1cnc(C(F)F)cc1-c1cc(N2CCCCC2=O)ccc1C(=O)Nc1nnc(C#CC2CC2)s1` [Compound 212]: below 0.25 nM.
Next, `COc1cnc(C(F)F)cc1-c1cc(N2CCOCC2=O)ccc1C(=O)Nc1ncc(C#CC2CC2)s1` [Compound 213]: below 0.25 nM.
Molecule `COc1cnc(C(F)F)cc1-c1cc(CC(=O)N(C)C)ccc1C(=O)Nc1ncc(C#CC2CC2)s1` [Compound 215] yielded an IC50 of 0.31 nM.
Next, `COc1cnc(C(F)F)cc1-c1cc(N2C(=O)CCC2=O)ccc1C(=O)Nc1nnc(C#CC2CC2)s1` [Compound 216]: 1.5 nM; `COc1cnc(C(F)F)cc1-c1cc(C#CCN2CCOCC2)ncc1C(=O)Nc1nnc(C#CC2CC2)s1` [Compound 218]: 0.25 nM; `COc1cnc(C(F)F)cc1-c1cc(C#CCN2CCOCC2)ccc1C(=O)Nc1nnc(C#CC2CC2)s1` [Compound 219]: below 0.25 nM.
The value for `COc1cnc(C(F)F)cc1-c1cc(N(C)C(=O)C2(C)COC2)ccc1C(=O)Nc1nnc(C#CC2CC2)s1` [Compound 220] was 0.78 nM; that for `COc1cnc(C(F)F)cc1-c1cc(N(C)C(=O)C2(C)CC2)ccc1C(=O)Nc1nnc(C#CC2CC2)s1` [Compound 221] was 0.98 nM.
The value for `COc1cnc(C(F)F)cc1-c1cc(N(C)C(=O)C2CC2)ccc1C(=O)Nc1nnc(C#CC2CC2)s1` [Compound 222] was below 0.25 nM; that for `COc1cnc(C(F)F)cc1-c1cc(C#CC2CCOC2)ncc1C(=O)Nc1ncc(C#CC2CC2)s1` (stereo not drawn) [Compound 223] was 0.29 nM.
In turn, `[2H]C([2H])([2H])N(C(=O)C1CC(C)(O)C1)c1ccc(C(=O)Nc2nnc(C#CC3CC3)s2)c(-c2cc(C(F)F)ncc2OC)c1` (stereo not drawn) [Compound 224] had an IC50 of 0.35 nM.
The value for `COc1cnc(C(F)F)cc1-c1cc(NC(C)=O)ccc1C(=O)Nc1nnc(C#CC2CC2)s1` [Compound 225] was 0.56 nM; that for `COc1cnc(C(F)F)cc1-c1cc(CC#N)ncc1C(=O)Nc1nnc(C#CC2CC2)s1` [Compound 226] was 0.61 nM.
As for `COc1cnc(C(F)F)cc1-c1cc(CN2CCOCC2=O)ccc1C(=O)Nc1nnc(C#CC2CC2)s1` [Compound 227], it took 6.9 nM to reach half-maximal inhibition (IC50).
Next, `COc1cnc(C(F)F)cc1-c1cc(CC(=O)N2CCOCC2)ccc1C(=O)Nc1nnc(C#CC2CC2)s1` [Compound 228]: below 0.25 nM; `[2H]C([2H])([2H])N(C(=O)C1CCOC1)c1ccc(C(=O)Nc2nnc(C#CC3CC3)s2)c(-c2cc(C(F)F)ncc2OC)c1` (stereo not drawn) [Compound 229]: 1.4 nM.
The value for `CNC(=O)Cc1ccc(C(=O)Nc2nnc(C#CC3CC3)s2)c(-c2cc(C(F)F)ncc2OC)c1` [Compound 230] was below 0.25 nM.
Next, `COc1cnc(C(F)F)cc1-c1cc(CN2CCN(C)C2=O)ccc1C(=O)Nc1nnc(C#CC2CC2)s1` [Compound 231]: 1.6 nM.
`[2H]C([2H])([2H])N(C(C)=O)c1ccc(C(=O)Nc2nnc(C#CC3CC3)s2)c(-c2cc(C(F)F)ncc2OC)c1` [Compound 232]: the IC50 was below 0.25 nM.
The value for `COc1cnc(C(F)F)cc1-c1cc(C#CC2(n3cccn3)CC2)ncc1C(=O)Nc1nnc(C#CC2CC2)s1` [Compound 233] was below 0.25 nM; that for `COc1cnc(Cl)cc1-c1cc(C2(C(=O)N(C)C)CC2)ccc1C(=O)Nc1nnc(C#CC2CC2)s1` [Compound 234] was 34 nM.
The value for `COc1cnc(C(F)F)cc1-c1cc(N2CCOCC2)ncc1C(=O)Nc1nnc(C#CC2CC2)s1` [Compound 235] was 19 nM; that for `COc1cnc(C(F)F)cc1-c1cc(C#CCN(C)C)ccc1C(=O)Nc1nnc(C#CC2CC2)s1` [Compound 236] was 0.56 nM; that for `[2H]C([2H])([2H])N(C(C)=O)c1ccc(C(=O)Nc2nnc(C#CC3CC34CC4)s2)c(-c2cc(C(F)F)ncc2OC)c1` (stereo not drawn) [Compound 237] was below 0.25 nM.
As for `COc1cnc(C(F)F)cc1-c1cc(C#CC2(O)CCS(=O)(=O)CC2)ccc1C(=O)Nc1ncc(C#CC2CC2)s1` [Compound 238], the IC50 came out at 3.6 nM.
The value for `COc1cnc(C(F)F)cc1-c1cc(N2CCOCC2)ccc1C(=O)Nc1nnc(C#CC2CC2)s1` [Compound 239] was 18 nM.
The value for `COc1cnc(C(F)F)cc1-c1cc(C#CC(C)(C)CO)ccc1C(=O)Nc1nnc(C#CC2CC2)s1` [Compound 240] was 0.73 nM; that for `COc1cnc(C(F)F)cc1-c1cc(C#CC(C)(C)CO)ncc1C(=O)Nc1nnc(C#CC2CC2)s1` [Compound 241] was 0.33 nM.
The value for `COc1cnc(C(F)F)cc1-c1cc(C#CCN2CCS(=O)(=O)CC2)ccc1C(=O)Nc1nnc(C#CC2CC2)s1` [Compound 242] was 0.35 nM.
As for `CNc1ccc(C(=O)Nc2nnc(C#CC3CC3)s2)c(-c2cc(C(F)F)ncc2OC)c1` [Compound 243], the concentration for half-maximal inhibition (IC50) was 15 nM.
Next, `COc1cnc(C(F)F)cc1-c1cc(Cc2nnc(C)o2)ccc1C(=O)Nc1nnc(C#CC2CC2)s1` [Compound 244]: below 0.25 nM; `COc1cnc(C(F)F)cc1-c1cc(CC(=O)N(C)C)ncc1C(=O)Nc1nnc(C#CC2CC2)s1` [Compound 245]: below 0.25 nM.
The value for `COc1cnc(C(F)F)cc1-c1cc(C#CC2(OC)CCOCC2)ccc1C(=O)Nc1nnc(C#CC2CC2)s1` [Compound 246] was 1.1 nM; that for `COc1cnc(C(F)F)cc1-c1cc(C2CC2)ncc1C(=O)Nc1nnc(C#CC2CC2)s1` [Compound 247] was 2.9 nM.
Next, `COc1ccc(C(F)(F)F)cc1-c1cc(C#CC(C)O)ncc1C(=O)Nc1nnc(C#CC2CC2)s1` (stereo not drawn) [Compound 248]: below 0.25 nM.
`COc1ccc(C(F)(F)F)cc1-c1cc(C#CC2CCCOC2)ncc1C(=O)Nc1nnc(C#CC2CC2)s1` (stereo not drawn) [Compound 249] yielded an IC50 of 0.77 nM.
Regarding `COc1cnc(Cl)cc1-c1cc(C2(C(=O)O)CC2)ccc1C(=O)Nc1nnc(C#CC2CC2)s1` [Compound 250], it took 1.3 nM to reach half-maximal inhibition (IC50).
Next, `COc1cnc(C(F)F)cc1-c1cc(C#N)ccc1C(=O)Nc1nnc(C#CC2CC2)s1` [Compound 251]: 0.45 nM; `COc1cnc(C(F)F)cc1-c1cc(-c2cnn(C)c2)ncc1C(=O)Nc1nnc(C#CC2CC2)s1` [Compound 252]: below 0.25 nM; `COc1cnc(C(F)F)cc1-c1cc(C#CC(C)(C)O)ncc1C(=O)Nc1nnc(C#CC2CC2)s1` [Compound 253]: below 0.25 nM.
The value for `COc1cnc(C(F)F)cc1-c1cc(C(=O)N2CCOCC2)ccc1C(=O)Nc1nnc(C#CC2CC2)s1` [Compound 254] was 1.7 nM.
Next, `COc1cnc(C(F)F)cc1-c1cc(C#CC2(O)CCOCC2)ncc1C(=O)Nc1nnc(C#CC2CC2)s1` [Compound 255]: 0.26 nM; `COc1cnc(C(F)F)cc1-c1cc(CCC2(O)CCS(=O)(=O)CC2)ccc1C(=O)Nc1nnc(C#CC2CC2)s1` [Compound 256]: 2.9 nM; `COc1cnc(C(F)F)cc1-c1cc(C(=O)N(C)C)ccc1C(=O)Nc1ncc(C#CC2CC2)s1` [Compound 257]: 26 nM.
Turning to `COc1cnc(C(F)F)cc1-c1cc(C(=O)N(C)C)ccc1C(=O)Nc1nnc(C#CC2CC2)s1` [Compound 258], it took 2.9 nM to reach half-maximal inhibition (IC50).
Next, `COc1cnc(C(F)F)cc1-c1cc(Cl)ncc1C(=O)Nc1nc(C#N)c(C#CC2CC2)s1` [Compound 259]: 1.2 nM; `COc1cnc(C(F)F)cc1-c1cc(C[S+](C)[O-])ccc1C(=O)Nc1nnc(C#CC2CC2)s1` (stereo not drawn) [Compound 260]: 2 nM; `COc1cnc(C(F)F)cc1-c1cc(-n2cccn2)ncc1C(=O)Nc1nnc(C#CC2CC2)s1` [Compound 261]: 0.62 nM.
The molecule `COc1cnc(C(F)F)cc1-c1cc(-n2ccnc2)ncc1C(=O)Nc1nnc(C#CC2CC2)s1` [Compound 262] showed an IC50 of 0.29 nM.
With `COc1cnc(C(F)F)cc1-c1cc(-n2cncn2)ncc1C(=O)Nc1nnc(C#CC2CC2)s1` [Compound 263], the IC50 was below 0.25 nM.
Next, `COc1cnc(C(F)F)cc1-c1cc(C#CC2(O)CCS(=O)(=O)CC2)ccc1C(=O)Nc1nnc(C#CC2CC2)s1` [Compound 264]: below 0.25 nM.
